This is an account of results in patent publication US9586978B2, “Anti-viral compounds” (AbbVie Inc., priority 2009, dated 2017).

Read-outs that look alike come from different tables or passages of the source.

Series [1] deals with HCV genotype 1a replicon. The series can be described thus: HCV genotype 1a replicon assay. Type of series: cell-based, Hepatitis C virus. From the text:
(§1) [drawing 14] employs a biphenyl linker between the imidazole moieties. See WO2008021927(BMS). The EC50 values of BMS-790052 against different HCV genotypes were shown by Nettles et al., “BMS-790052 is a First-in-class Potent Hepatitis C Virus (HCV) NS5A Inhibitor for Patients with Chronic HCV Infection: Results from a Proof-of-concept Study”, 59th Annual Meeting of the American Association for the Study of Liver Diseases (Oct. 31-Nov. 1, 2008, San Francisco, Calif.; www.natap.org/2008/AASLD/AASLD_06.htm). […] See also Gao et al., NATURE 465:96-100 (2010). The compounds in Table 1 use different linkers between the imidazole moieties. Table 1 depicts the EC50 values of these compounds when tested using respective replicon assays in the presence of 5% (v/v) fetal bovine serum (FBS).
(§2) Table 2 compares compounds containing unsubstituted benzimidazole to those containing halo-substituted benzimidazole. Anti-viral activities were assessed using wild-type replicons (e.g., 1b WT or 1a WT) as well as replicons containing specific NS5A mutations (e.g., 1b L28T, 1b Y93H, 1a L31V, 1a Y93C, 1a M28V, or 1a Q30E) in the absence of FBS.
(§3) Table 3 compares compounds with different linkers between the benzimidazole moieties. Anti-viral activities were determined using 1a and 1b replicon assays. “HP” refers to human plasma. […] As compared to the phenyl linker
(Replicon systems follow genome replication, usually without infectious particles.)

For series [2], the system named is HCV genotype 1b replicon. Nature of the series: HCV genotype 1b replicon assay. Type of series: cell-based, Hepatitis C virus.
Excerpt: as §1, §2, §3

Series [3] deals with HCV genotype 2a replicon. Nature of the series: HCV genotype 2a replicon assay. Type of series: cell-based, Hepatitis C virus.
Excerpt: as §1

Series [4] has as its system HCV genotype 2b replicon. The series can be described thus: HCV genotype 2b replicon assay. Type of series: cell-based, Hepatitis C virus.
Excerpt: as §1

For series [5], the system named is HCV genotype 3a replicon. Nature of the series: HCV genotype 3a replicon assay. Type of series: cell-based, Hepatitis C virus.
Excerpt: as §1

For series [6], the system named is HCV genotype 4a replicon. The series can be described thus: HCV genotype 4a replicon assay. Type of series: cell-based, Hepatitis C virus.
Excerpt: as §1

The subject of series [7] is HCV genotype 5a replicon. The series can be described thus: HCV genotype 5a replicon assay. Type of series: cell-based, Hepatitis C virus. The conditions noted are these: replicon assay in the presence of 5% (v/v) FBS.
Excerpt: as §1

Series [8] relates to HCV genotype 6a replicon. The series can be described thus: HCV genotype 6a replicon assay. Type of series: cell-based, Hepatitis C virus.
Excerpt: as §1

The subject of series [9] is HCV 2a, 2b, 3a and 4a replicon. Nature of the series: HCV 2a, 2b, 3a and 4a replicon assays in the absence of human plasma. Type of series: cell-based. The conditions noted are these: 3a and 4a replicons; for EC50 values, fold less than those of Example 4.25: absence of HP, versus Example 4.25. The protocol:
The inhibitory effects of the compounds of the invention on HCV replication can be determined by measuring activity of the luciferase reporter gene. For example, replicon-containing cells can be seeded into 96 well plates at a density of 5000 cells per well in 100 μl DMEM containing 5% FBS. The following day compounds can be diluted in dimethyl sulfoxide (DMSO) to generate a 200× stock in a series of eight half-log dilutions. The dilution series can then be further diluted 100-fold in the medium containing 5% FBS. Medium with the inhibitor is added to the overnight cell culture plates already containing 100 μl of DMEM with 5% FBS. In assays measuring inhibitory activity in the presence of human plasma, the medium from the overnight cell culture plates can be replaced with DMEM containing 40% human plasma and 5% FBS. The cells can be incubated for three days in the tissue culture incubators after which time 30 μl of Passive Lysis buffer (Promega) can be added to each well, and then the plates are incubated for 15 minutes with rocking to lyse the cells. Luciferin solution (100 μl, Promega) can be added to each well, and luciferase activity can be measured with a Victor II luminometer (Perkin-Elmer). The percent inhibition of HCV RNA replication can be calculated for each compound concentration and the EC50 value can be calculated using nonlinear regression curve fitting to the 4-parameter logistic equation and GraphPad Prism 4 software.

Series [10] relates to HCV 1b replicon containing NS5A mutation Y93H. The series can be described thus: HCV 1b Y93H replicon assay. Type of series: cell-based, Hepatitis C virus. Particulars: transient transfection assays. The protocol: as §2
A short description of series [11]: AUC value (as defined above). Type of series: in vivo.
Series [12] has as its system HCV 1a replicon L31M, Y93H or Y93N mutant. The series can be described thus: HCV 1a replicon assays in the presence of 40% HP, mutants. Type of series: cell-based. Particulars: versus Example 109 of the '301 application.
[13] abbreviates: replicon assay in the presence of 5% (v/v) FBS, read-out: EC50 (nM) 1a.
The mark [14] stands for this setting: replicon assay in the presence of 5% (v/v) FBS, read-out: EC50 (nM) 1b.
[15] abbreviates: replicon assay in the presence of 5% (v/v) FBS, read-out: EC50 (nM) 2a.
The mark [16] stands for this setting: replicon assay in the presence of 5% (v/v) FBS, read-out: EC50 (nM) 2b.
[17] abbreviates: read-out: EC50 (nM) 3a, replicon assay in the presence of 5% (v/v) FBS.
[18] abbreviates: replicon assay in the presence of 5% (v/v) FBS, read-out: EC50 (nM) 4a.
The mark [19] stands for this setting: read-out: EC50 (nM) 6a, replicon assay in the presence of 5% (v/v) FBS.
Where [20] appears, read: Hepatitis C virus, 40% human plasma, Table 5, read-out: EC50 (nM, in the presence of 40% HP) 1a.
Where [21] appears, read: Hepatitis C virus, 40% human plasma, Table 5, read-out: EC50 (nM, in the presence of 40% HP) 1b.
The mark [22] stands for this setting: Hepatitis C virus, absence of human plasma, Table 5, read-out: EC50 (nM, in the absence of HP) 2a.
The mark [23] stands for this setting: Hepatitis C virus, absence of human plasma, Table 5, read-out: EC50 (nM, in the absence of HP) 2b.
Where [24] appears, read: Hepatitis C virus, read-out: EC50 (nM, in the absence of HP) 3a, absence of human plasma, Table 5.
The mark [25] stands for this setting: Hepatitis C virus, absence of human plasma, Table 5, read-out: EC50 (nM, in the absence of HP) 4a.

Consider `COC(=O)N[C@H](C(=O)N1CCC[C@H]1c1ncc(C2=CCC(c3ccc(-c4cnc([C@@H]5CCCN5C(=O)[C@@H](NC(=O)OC)C(C)C)[nH]4)cc3)CC2)[nH]1)C(C)C` (stereo partly shown), for which the EC50 was found to be 0.12 nM in [1] (Hepatitis C virus, replicon assay in the presence of 5% (v/v) FBS, read-out: EC50 (nM) 1a); 0.03 nM in series [2] (Hepatitis C virus, replicon assay in the presence of 5% (v/v) FBS, read-out: EC50 (nM) 1b); 16 nM in series [3] (Hepatitis C virus, replicon assay in the presence of 5% (v/v) FBS, read-out: EC50 (nM) 2a); 0.09 nM in series [4] (Hepatitis C virus, replicon assay in the presence of 5% (v/v) FBS, read-out: EC50 (nM) 2b); 1.5 nM in series [5] (Hepatitis C virus, read-out: EC50 (nM) 3a, replicon assay in the presence of 5% (v/v) FBS); 0.03 nM in series [6] (Hepatitis C virus, replicon assay in the presence of 5% (v/v) FBS, read-out: EC50 (nM) 4a). Besides, the EC50 in series [7] (Hepatitis C virus) amounted to 0.05 nM; in series [8] (Hepatitis C virus, read-out: EC50 (nM) 6a, replicon assay in the presence of 5% (v/v) FBS), 0.5 nM.
Consider `COC(=O)N[C@H](C(=O)N1CCC[C@H]1c1ncc(-c2ccc(C3CCC(c4cnc([C@@H]5CCCN5C(=O)[C@@H](NC(=O)OC)C(C)C)[nH]4)CC3)cc2)[nH]1)C(C)C` (single isomer, unassigned) [drawing 17], for which the EC50 was determined as 0.71 nM in series [1] (setting [13]); 0.06 nM in series [2] (setting [14]); 9 nM in series [3] (setting [15]); 0.4 nM in series [4] (setting [16]); 2.3 nM in series [5] (setting [17]); 0.04 nM in series [6] (setting [18]). For the same molecule, the values for the EC50 in [7] and in series [8] (setting [19]) were 0.08 nM and 0.5 nM, respectively.
For the molecule `COC(=O)N[C@H](C(=O)N1CCC[C@H]1c1ncc(-c2ccc(C3CCC(c4cnc([C@@H]5CCCN5C(=O)[C@@H](NC(=O)OC)C(C)C)[nH]4)CC3)cc2)[nH]1)C(C)C` (single isomer, unassigned) [drawing 18], the EC50 in [1] (setting [13]) was over 10 nM; in series [2] (setting [14]) it was 8.5 nM; in series [3] (setting [15]), over 100 nM; in series [4] (setting [16]), over 10 nM; in series [5] (setting [17]), over 10 nM; in series [6] (setting [18]) it was 4 nM. The EC50 in series [7] and in [8] (setting [19]) was over 10 nM each time.
Consider `COC(=O)N[C@H](C(=O)N1CCC[C@H]1c1nc2cc([C@H]3CC[C@H](c4ccc5[nH]c([C@@H]6CCCN6C(=O)[C@@H](NC(=O)OC)C(C)C)nc5c4)N3c3ccc(N4CCC(c5ccccc5)CC4)c(F)c3)ccc2[nH]1)C(C)C` [Example 3.20, methyl{(2S)-1-[(2S)-2-{5-[(2R,5R)-1-[3-fluoro-4-(4-phenylpiperidin-1-yl)phenyl]-5-{2-[(2S)-1-{(2S)-2-[(methoxycarbonyl)amino]-3-methylbutanoyl}pyrrolidin-2-yl]-1H-benzimidazol-5-yl}pyrrolidin-2-yl]-1H-benzimidazol-2-yl}pyrrolidin-1-yl]-3-methyl-1-oxobutan-2-yl}carbamate], for which the EC50 in series [1] (setting [20]) is 0.5 nM; in series [2] (setting [21]) it was 0.6 nM; in [3] (setting [22]), at most 0.05 nM; in series [4] (setting [23]), at most 0.05 nM; in series [5] (setting [24]), at most 0.05 nM; in [6] (setting [25]) it was at most 0.05 nM. The “EC50 values, fold less than those of Example 4.25” value in series [9] is “at least 15 fold”.
As to `COC(=O)N[C@H](C(=O)N1CCC[C@H]1c1nc2cc([C@H]3CC[C@H](c4ccc5[nH]c([C@@H]6CCCN6C(=O)[C@@H](NC(=O)OC)C(C)C)nc5c4)N3c3ccc(N4CCC(c5ccccc5)CC4)cc3)ccc2[nH]1)C(C)C` [Example 4.25], the EC50 amounted to 1.5 nM in [1] (setting [20]); 1.5 nM in [2] (setting [21]); 0.5 nM in [3] (setting [22]); 0.5 nM in series [4] (setting [23]); 0.5 nM in series [5] (setting [24]); 0.2 nM in [6] (setting [25]). In addition, the EC50 in series [9] (Hepatitis C virus, absence of human plasma) lay within 200 to 500 pM.
Take `COC(=O)N[C@H](C(=O)N1CCC[C@H]1c1nc2cc([C@H]3CC[C@H](c4ccc5[nH]c([C@@H]6CCCN6C(=O)[C@@H](NC(=O)OC)C(C)C)nc5c4)N3c3cc(F)c(N4CCC(c5ccccc5)CC4)c(F)c3)ccc2[nH]1)C(C)C` [Example 5.1, methyl{(2S)-1-[(2S)-2-{5-[(2R,5R)-1-[3,5-difluoro-4-(4-phenylpiperidin-1-yl)phenyl]-5-{2-[(2S)-1-{(2S)-2-[(methoxycarbonyl)amino]-3-methylbutanoyl}pyrrolidin-2-yl]-1H-benzimidazol-5-yl}pyrrolidin-2-yl]-1H-benzimidazol-2-yl}pyrrolidin-1-yl]-3-methyl-1-oxobutan-2-yl}carbamate]: the EC50 is 0.1 nM in series [1] (setting [20]); 0.2 nM in [2] (setting [21]); at most 0.05 nM in [3] (setting [22]); at most 0.05 nM in [4] (setting [23]); at most 0.05 nM in series [5] (setting [24]); at most 0.05 nM in [6] (setting [25]). Further, the “EC50 fold less than that of Example 37 of US 2010/0317568 against the 1b Y93H variant” value in series [10] is reported as “at least 10 fold”. In addition, the “EC50 values, fold less than those of Example 4.25” value in series [9] is listed as “at least 50 fold”. The “AUC value, fold greater than that of Example 2.9” value in series [11] (versus Example 2.9) is reported as “about 30 fold”.
Consider `COC(=O)N[C@H](C(=O)N1CCC[C@H]1c1nc2cc([C@H]3CC[C@H](c4cc5[nH]c([C@@H]6CCCN6C(=O)[C@@H](NC(=O)OC)C(C)C)nc5cc4F)N3c3ccc(C(C)(C)C)cc3)c(F)cc2[nH]1)C(C)C` [Example 6.1, methyl{(2S)-1-[(2S)-2-{5-[(2R,5R)-1-(4-tert-butylphenyl)-5-{5-fluoro-2-[(2S)-1-{(2S)-2-[(methoxycarbonyl)amino]-3-methylbutanoyl}pyrrolidin-2-yl]-1H-benzimidazol-6-yl}pyrrolidin-2-yl]-6-fluoro-1H-benzimidazol-2-yl}pyrrolidin-1-yl]-3-methyl-1-oxobutan-2-yl}carbamate], for which, in series [12], the “EC50 value, fold less than that of Example 109 of the '301 application” value is reported as “at least 5 fold”. Besides, in [11] (versus Example 109 of the '301 application), the “AUC value, fold greater than that of Example 109 of the '301 application” value is listed as “about 9 fold”.
